Tests used:
CYP3A4 S119A = CYP3A4 S119A (Homo sapiens, UniProt P08684, S119A); assay: Thermal denaturation of CYP3A4 S119A-inhibitor complex; format: binding; conditions: for Tm: CYP3A4 S119A mutant, ligand-free 54.0 ± 0.1, with 2% DMSO 53.5 ± 0.1; for decrease in Tm of ligand-bound S119A CYP3A4 vs wild type: S119A vs WT
CYP3A4 [1] = target: T1, CYP3A4 (Homo sapiens, UniProt P08684); assay: Thermal denaturation of CYP3A4-inhibitor complex, WT; format: binding; conditions: WT CYP3A4 2 µM, 10 µM inhibitor; ligand-free 52.6 ± 0.1, with 2% DMSO 52.1 ± 0.1
CYP3A4 [2] = target: T1, CYP3A4; assay: Dissociation during repetitive concentration/dilution cycles; format: binding
CYP3A4 [3] = target: T1, CYP3A4; assay: Redox potential measurement of inhibitor-bound CYP3A4; conditions: for Eo,7 (midpoint redox potential of the inhibitor-bound CYP3A4): ligand-free CYP3A4 ~−300 mV, benzyl viologen as redox dye; for negative shift (decrease) in heme redox potential Eo,7 caused by ligation: relative to ligand-free CYP3A4
CYP3A4 [4] = target: T1, CYP3A4; assay: Spectral binding titration; conditions: WT CYP3A4, relative to ritonavir
CYP3A4 [5] = target: T1, CYP3A4; assay: BFC hydroxylase activity inhibition in reconstituted system with CPR; conditions: from IC50 values

| Tm (CYP3A4 S119A) [°C] | decrease in Tm of ligand-bound S119A CYP3A4 vs wild type (CYP3A4 S119A) | Tm (melting temperature of the CYP3A4-inhibitor complex) (CYP3A4 [1]) [°C] | reversibility of binding (dissociation from CYP3A4) (CYP3A4 [2]) | Eo,7 (midpoint redox potential of the inhibitor-bound CYP3A4) (CYP3A4 [3]) | negative shift (decrease) in heme redox potential Eo,7 caused by ligation (CYP3A4 [3]) | fold lower binding affinity for CYP3A4 than ritonavir (from Ks) (CYP3A4 [4]) [fold] | fold lower inactivating potency than ritonavir (CYP3A4 [5]) [fold] | fold more effective inhibition of BFC hydroxylation than ritonavir (CYP3A4 [5]) | Structure (SMILES) |
| --- | --- | --- | --- | --- | --- | --- | --- | --- | --- |
| 55.5 ± 0.2 | 1–1.6 °C | 56.5 ± 0.2 | dissociated | <<-370 mV | > 70 mV |  |  |  | CC(C)c1nc(CN(C)C(=O)N[C@H](C(=O)N[C@H](CC[C@H](Cc2ccccc2)NC(=O)OCc2cnc[nH]2)Cc2ccccc2)C(C)C)cs1 [compound 1] |
| 53.2 ± 0.1 | 1–1.6 °C | 54.8 ± 0.1 | dissociated | ≈ −370 mV | ~ 50 mV | 10 | 6 |  | CC(C)c1nc(CN(C)C(=O)N[C@H](C(=O)N[C@H](CC[C@H](Cc2ccccc2)NC(=O)OCc2cnco2)Cc2ccccc2)C(C)C)cs1 [compound 2] |
| 55.6 ± 0.2 | 1–1.6 °C | 57.2 ± 0.2 | irreversibly | −350 ± 5 mV | ~70 mV |  |  | 2–4 fold | CC(C)c1nc(CN(C)C(=O)N[C@H](C(=O)N[C@H](CC[C@H](Cc2ccccc2)NC(=O)OCc2cccnc2)Cc2ccccc2)C(C)C)cs1 [compound 3] |

From article PMC4534002 (Journal of medicinal chemistry, 2013)
